Measurements published in patent publication US4314028A, “Fermentation process for producing tallysomycin compounds” (priority 1980, dated 1982).

Tests used:
[1] = Acute toxicity, single dose LD50; format: in vivo, dd mice; details: ip, 30 days observation, copper-chelated form unless otherwise stated
Procedure: Graded doses of test compounds were administered intraperitoneally to groups of dd mice. The injection was given one time only or once daily for 9 consecutive days. Death or survival of the animals was recorded for 30 days after the last dose of test compound to calculate the single or multiple median lethal dose (LD50).

[2] = test system: Mycobacterium smegmatis strain M6-3; test: Relative antibacterial potency, paper-disc agar diffusion method; format: cell-based; details: relative to tallysomycin A standard=1000 mcg/mg
Procedure: The relative antibacterial potencies (tallysomycin A standard=1000 mcg/mg) of the tallysomycin derivatives were determined by the paper-disc agar diffusion method using Mycobacterium smegmatis strain M6-3 as the assay organism.

[3] = test system: Sarcoma 180; test: animal or person; format: in vivo, dd-strain mice; details: copper-chelated form unless otherwise stated; for Antitumor activity S180 (ED150): ip, once daily 9 days, effective dose 150, survival; for Antitumor therapeutic index S180: single dose LD50/ED150
Text: (§1) The antitumor activity of the tallysomycin derivatives was examined in four experimental tumor systems in mice. Lymphocytic leukemia P388 and Lewis lung carcinoma were implanted intraperitoneally into BDF1 mice of either sex at an inoculum size of 3×10^5 and 5×10^5 cells per mouse, respectively. Sarcoma 180 ascites tumor was inoculated intraperitoneally into male dd-strain mice with […] per mouse. Melanotic melanoma B16 was implanted subcutaneously into BDF1 mice with 5×10^5 cells per mouse. Twenty-four hours after the implantation of tumor cells, graded doses of test compounds were administered to mice intraperitoneally in an injection volume of 0.2 ml. per 10 grams of body weight. Test compounds were given once daily for 9 days (qd 1→9 schedule) except for the mice inoculated with Lewis lung carcinoma which were treated for 11 days (qd 1→11). Death or survival of the treated and non-treated (control) animals was recorded daily during the observation period of 45 days after the implantation of tumor cells, and the median survival time was calculated for each of the test (T) and control (C) groups. […] The actual dose giving a T/C of 125% was estimated by linear regression analysis and defined as the effective dose 125 or ED125. The effective dose 150 (ED150) was employed for the evaluation of antitumor effect against Sarcoma 180. In the B16 melanoma experiment the tumor size was measured on day 16 after tumor inoculation, and the dose giving 50% inhibition of tumor growth (ID50) was calculated from regression lines.
(§2) The antitumor therapeutic index was calculated for each derivative from the ratio of toxicity and antitumor activity.

[4] = test system: Lymphocytic leukemia P388; test: animal or person; format: in vivo, BDF1 mice; details: copper-chelated form unless otherwise stated; for Antitumor activity P388 (ED125): ip, once daily 9 days, dose giving T/C survival of 125%; for Antitumor therapeutic index P388: single dose LD50/ED125
Text: as §1, §2

[5] = test system: Lewis lung carcinoma; test: Antitumor activity in mice, Lewis lung carcinoma; format: in vivo, BDF1 mice; details: copper-chelated form unless otherwise stated; for Antitumor activity Lewis lung (ED125): ip, once daily 11 days, dose giving T/C survival of 125%; for Antitumor therapeutic index Lewis Lung: single dose LD50/ED125
Text: as §1, §2

[6] = test system: lysogenic bacterium E. coli W1709 (λ); test: Prophage induction of lysogenic bacterium (ILB activity); format: cell-based; details: t/c ratio of plaque counts greater than 3.0
Method in brief: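 Plaques counted on agar plates containing test compound and on control plates, following Lein et al. A test/control plaque ratio above 3.0 counted as significant. Value given as the minimum inducible concentration.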

[7] = test system: Escherichia coli NIHJ; test: MIC, two-fold agar dilution method; format: cell-based; details: nutrient agar
Method in brief: (§3)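 Compounds are diluted two-fold through agar plates: Sabouraud medium for the fungus, nutrient medium for the bacterial strains, including the acid-fast Mycobacterium 607. Organisms are then applied and the minimum inhibitory concentration is recorded.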

[8] = test system: Mycobacterium 607; test: MIC, two-fold agar dilution method; format: cell-based; details: nutrient agar
Method in brief: (§4)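 Agar dilution (2-fold series) on nutrient agar (bacteria) or Sabouraud agar (fungi).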

[9] = test system: Sarcina lutea PCI1001; test: MIC, two-fold agar dilution method; format: cell-based; details: nutrient agar
Method in brief: as §4

[10] = test system: Bacillus subtilis PCI 219; test: MIC, two-fold agar dilution method; format: cell-based; details: nutrient agar
Method in brief: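 Two-fold agar dilution; nutrient agar for bacteria, Sabouraud agar for A. fumigatus. MIC = lowest inhibitory concentration.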

[11] = test system: Aspergillus fumigatus IAM 2593; test: MIC, two-fold agar dilution method; format: cell-based; details: Sabouraud agar
Method in brief: as §4

[12] = test system: Candida albicans IAM 4888; test: MIC, two-fold agar dilution method; format: cell-based; details: Sabouraud agar
Method in brief: as §3

[13] = test system: Staphylococcus aureus Smith; test: MIC, two-fold agar dilution method; format: cell-based; details: nutrient agar
Method in brief: as §4

[14] = test system: Proteus mirabilis A9554; test: MIC, two-fold agar dilution method; format: cell-based; details: nutrient agar
Method in brief: as §3

[15] = test system: Melanotic melanoma B16; test: Antitumor activity in mice, melanotic melanoma B16; format: in vivo, BDF1 mice; details: copper-chelated form unless otherwise stated; for Antitumor activity B16 (ID50): ip, once daily 9 days, 50% inhibition of tumor growth, day 16, 23040 min; for Antitumor therapeutic index B16: single dose LD50/ID50
Text: as §1, §2

SMILES	LD50 single dose [1] [mg/kg/day]	Antibacterial potency [2]	Antitumor activity S180 (ED150) [3] [mg/kg/day]	Antitumor therapeutic index S180 [3]	Antitumor activity P388 (ED125) [4] [mg/kg/day]	Antitumor therapeutic index P388 [4]	Antitumor activity Lewis lung (ED125) [5] [mg/kg/day]	Antitumor therapeutic index Lewis Lung [5]	ILB activity (minimum inducible concentration) [6] [µg/mL]	minimum inhibitory concentration (MIC) [7]	minimum inhibitory concentration (MIC) [8]	minimum inhibitory concentration (MIC) [9]	minimum inhibitory concentration (MIC) [10]	minimum inhibitory concentration (MIC) [11]	minimum inhibitory concentration (MIC) [12]	minimum inhibitory concentration (MIC) [13]	minimum inhibitory concentration (MIC) [14]	Antitumor activity B16 (ID50) [15] [mg/kg/day]	Antitumor therapeutic index B16 [15]
Cc1c(N)nc(C(CC(N)=O)NCC(N)C(N)=O)nc1C(=O)NC(C(=O)NC(C)C(O)CC(=O)NC(C(=O)NC(OC1OC(C)C(N)C(O)C1O)C(O)c1nc(-c2nc(C(=O)NCCCN(CCO)CCO)cs2)cs1)C(C)O)C(OC1OC(CO)C(O)C(O)C1OC1OC(CO)C(O)C(OC(N)=O)C1O)c1c[nH]cn1 (stereo not drawn) [Tallysomycin S8b]	30	370 μ/mg	0.25	120	1.5	20	0.12	250	0.02	0.2	0.1	0.8	0.013	1.6	> 50	0.4	0.8	0.26	115
Cc1c(N)nc(C(CC(N)=O)NCC(N)C(N)=O)nc1C(=O)NC(C(=O)NC(C)C(O)CC(=O)NC(C(=O)NC(OC1OC(C)C(N)C(O)C1O)C(O)c1nc(-c2nc(C(=O)NCCCNCCO)cs2)cs1)C(C)O)C(OC1OC(CO)C(O)C(O)C1OC1OC(CO)C(O)C(OC(N)=O)C1O)c1c[nH]cn1 (stereo not drawn) [Tallysomycin S6b]	30	340 μ/mg	0.08	375	2.2	14	0.17	176	0.08	0.4	0.2	12.5	0.02	0.8	25	6.3	3.1	0.22	136
Cc1c(N)nc(C(CC(N)=O)NCC(N)C(N)=O)nc1C(=O)NC(C(=O)NC(C)C(O)CC(=O)NC(C(=O)NC(OC1OC(C)C(N)C(O)C1O)C(O)c1nc(-c2nc(C(=O)NCCN)cs2)cs1)C(C)O)C(OC1OC(CO)C(O)C(O)C1OC1OC(CO)C(O)C(OC(N)=O)C1O)c1c[nH]cn1 (stereo not drawn) [Tallysomycin S3b]	19	725 μ/mg	0.06	317	0.32	59	0.26	73	0.31	0.1	0.05	1.6	0.013	0.8	12.5	0.8	0.2	0.20	95
Cc1c(N)nc(C(CC(N)=O)NCC(N)C(N)=O)nc1C(=O)NC(C(=O)NC(C)C(O)CC(=O)NC(C(=O)NC(OC1OC(C)C(N)C(O)C1O)C(O)c1nc(-c2nc(C(=O)NCCCC(N)CC(=O)NCCCNCCO)cs2)cs1)C(C)O)C(OC1OC(CO)C(O)C(O)C1OC1OC(CO)C(O)C(OC(N)=O)C1O)c1c[nH]cn1 (stereo not drawn) [Tallysomycin S6a]	15	460 μ/mg	0.09	167	0.70	21	0.47	32	0.02	0.4	0.4	1.6	0.03	0.2	6.3	0.8	1.6	0.12	125
Cc1c(N)nc(C(CC(N)=O)NCC(N)C(N)=O)nc1C(=O)NC(C(=O)NC(C)C(O)CC(=O)NC(C(=O)NC(OC1OC(C)C(N)C(O)C1O)C(O)c1nc(-c2nc(C(=O)NCCNCCO)cs2)cs1)C(C)O)C(OC1OC(CO)C(O)C(O)C1OC1OC(CO)C(O)C(OC(N)=O)C1O)c1c[nH]cn1 (stereo not drawn) [Tallysomycin S9b]	32	380 μ/mg	0.42	76	> 3.0	< 11	0.41	78	0.16	0.1	0.1	0.8	0.013	1.6	25	0.4	0.8	0.29	110
Cc1c(N)nc(C(CC(N)=O)NCC(N)C(N)=O)nc1C(=O)NC(C(=O)NC(C)C(O)CC(=O)NC(C(=O)NC(OC1OC(C)C(N)C(O)C1O)C(O)c1nc(-c2nc(C(=O)NCCCN)cs2)cs1)C(C)O)C(OC1OC(CO)C(O)C(O)C1OC1OC(CO)C(O)C(OC(N)=O)C1O)c1c[nH]cn1 (stereo not drawn) [Tallysomycin S1b]	19	1,000 μ/mg	0.11	173	2.0	10	0.12	158	0.31	0.4	< 0.05	1.6	< 0.05	1.6	12.5	1.6	1.6	0.15	127
